Legend:
pAkt protein levels = test: Western blotting of pAkt (Ser473) in SAN cells; assay type: cell-based, human; settings: 100 μM, 1 or 2 h
Method: The molecular mechanisms that regulate the cytotoxic potential of 7 in melanoma cells were further investigated through the evaluation of the activation state of protein kinase B (pAkt), one of the key proteins involved in the control and regulation of cell survival. To this aim, the protein levels of pAkt have been analyzed after 2- and 4-h incubation of A2058 cells with 7. […] It is known that Akt regulates the process of cell survival by phosphorylating different substrates, directly or indirectly involved in the apoptotic program. One of these targets is p53, a protein with a tumor-suppressor activity that regulates the cell cycle, as well as the expression of several genes involved in the apoptosis. […]
A2058 cells were seeded into 6-well-plates (3 × 10^5 cells/plate) for 24 h at 37°C and then treated at different times with 100 μM compound 7 or 0.5% DMSO. […] The protein concentration was determined by the method of Bradford, using bovine serum albumin (BSA) as standard. […] Membranes were then analysed by an enhanced chemiluminescence reaction, using Super Signal West Pico kit (Pierce) according to manufacturer's instruction; signals were visualized by autoradiography. […]
0.5% DMSO or 100 μM compound 7 for 1 or 2 h, were analyzed by Western blotting using an antibody raised against pAkt (Ser473). […]

SAN cells = test: Cell cycle analysis by PI flow cytometry, SAN cells; assay type: cell-based, human; settings: 100 μM, 16 and 24 h
Method: As CDC25 phosphatases are key cell cycle regulators, the effect of 7 on cell cycle progression was investigated in detail. To this aim, asynchronously growing A2058 and SAN cells were treated at different times with 100 μM compound 7, and then cell cycle analysis was cytofluorimetrically monitored after propidium iodide (PI) incorporation. […] After 16-h incubation with […], cells were mainly and almost equally distributed in G0/G1 and G2/M phases (the ratio between them being 0.96), whereas the cellular population in the S phase was essentially undetectable. […] A similar general picture emerged from the effect of compound 7 on cell cycle progression of SAN cells (Supplementary Figure S3).
Cells were seeded into 6-well plates at 3 × 10^5 cells/well for 24 h at 37°C; after the addition of 100 μM 7 or 0.5% DMSO as a vehicle control, the incubation of treated cells continued for 16 or 24 h. After each treatment, cells were harvested with trypsin, centrifuged and the pellet was resuspended in phosphate-buffered saline (PBS). For cell cycle analysis, cells were fixed with 70% (v/v) cold ethanol and stored at −20°C for 1 h. […] After incubation at 4°C for 30 min, cells were analyzed with a FACScan flow cytometer (Becton Dickinson) for evaluating the distribution in cell cycle phases or the presence of nuclei with a DNA content lower than the diploid.

CDC25A = molecular target: T1, CDC25A (Homo sapiens, UniProt P30304); test: Ki from OMFP hydrolysis kinetics (Lineweaver-Burk), CDC25A; assay type: biochemical; settings: 20 nM CDC25A, 1–25 μM OMFP; mean ± S.E.; read-out: Ki CDC25A
T1 construct: Recombinant forms of the catalytic domains of CDC25A, -B and -C were obtained through the vectors pET28a-CDC25A-cd, pET28a-CDC25B-cd and pET28a-CDC25C-cd; made in house
T1 sequence (P30304 376-482 limits assumed): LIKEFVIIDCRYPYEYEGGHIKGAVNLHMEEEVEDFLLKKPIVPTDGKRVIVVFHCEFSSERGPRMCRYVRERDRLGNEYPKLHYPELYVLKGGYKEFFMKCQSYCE
Method: To measure the inhibition constant (Ki) of the recombinant forms of CDC25A, -B and -C towards the various inhibitors, the affinity of the different forms of CDC25 towards OMFP was measured either in the absence or in the presence of fixed concentrations of the various inhibitors. The reaction mixture contained 20 nM CDC25A, or 10 nM CDC25B, or 40 nM CDC25C, and different concentrations of the various inhibitors in 500 μL final volume of 20 mM Tris-HCl, pH 7.8, 1 mM DTT. DMSO was used as vehicle control. […] The corresponding Lineweaver-Burk plots allowed the calculation of the KM for OMFP and of the Vmax of OMFP hydrolysis, expressed as a.u./minmax. […] The Ki values were obtained from the decrease of a.u./minmax in the presence of the inhibitor, according to the equation a.u./mimmax’ = a.u./mimmax/{1 + ([I]/Ki)}, where a.u./mimmax’ represents the Vmax measured in the presence of the concentration [I] of the inhibitor. The Ki values were obtained from at least three independent experiments and reported as mean ± S.E.

[1] = test system: Bcl-2 and Bax protein levels; test: Western blotting of Bcl-2 and Bax protein levels in A2058 cells; assay type: cell-based, human; settings: A2058, 100 μM
Method: Mitochondria represent the primary source of ROS, as well the target of ROS action, and therefore, compound 7 could affect their functionality in melanoma cells. […] Proteins belonging to the B-cell lymphoma-2 (Bcl-2) family are involved in the modulation of the mitochondrial functionality. Therefore, we have evaluated the levels of the anti-apoptotic protein Bcl-2, as well as that of the pro-apoptotic Bcl-2-associated X protein (Bax), after incubation with 7 (Figure 10B). […] To further investigate the occurrence of a mitochondrial-mediated apoptosis induced by 7, the caspase-9 activity was assayed. […] The effect of compound 7 was investigated also in SAN cells and the overall results were similar to those observed in A2058 (Supplementary Figure S6).
A2058 cells were seeded into 6-well-plates (3 × 10^5 cells/plate) for 24 h at 37°C and then treated at different times with 100 μM compound 7 or 0.5% DMSO. After treatment, cells were harvested, washed with PBS and then lysed in ice-cold modified radio immunoprecipitation assay (RIPA) buffer (50 mM Tris-HCl, pH 7.4, 150 mM NaCl, 1% Nonidet P-40, 0.25% sodium deoxycholate, 1 mM Na3VO4 and 1 mM NaF), supplemented with protease inhibitors and incubated for 30 min on ice. The supernatant obtained after centrifugation at 12,000 rpm for 30 min at 4°C constituted the total protein extract. The protein concentration was determined by the method of Bradford, using bovine serum albumin (BSA) as standard. Equal amounts of total protein extracts were used for Western blot analysis. […] The filter was incubated with the specific primary antibody at 4°C overnight and then with the secondary antibody at room temperature for 1 h. Membranes were then analysed by an enhanced chemiluminescence reaction, using Super Signal West Pico kit (Pierce) according to manufacturer's instruction; signals were visualized by autoradiography.

Ki (CDC25A): 650 ± 40 nM
Structure (SMILES): O=C(O)C1CCCCC1c1c2ccc(=O)cc-2oc2cc(O)ccc12 (stereo not drawn) [Compound 7, 2-(6-hydroxy-3-oxo-3H-xanthen-9-yl)cyclohexanecarboxylic acid]
Akt activation (pAkt) (pAkt protein levels): early reduction of Akt activation
cell distribution in the G2/M phase (SAN cells): increase of cell distribution in the G2/M phase
Bcl-2/Bax ratio ([1]; 8 and 16 h): significant reduction
Bcl-2 protein level ([1]; 8 and 16 h): clear reduction of the Bcl-2 level after 8-h treatment
Bax protein level ([1]; 16 h): clear increase of Bax

From publication PMC4741889, “Ligand-based chemoinformatic discovery of a novel small molecule inhibitor targeting CDC25 dual specificity phosphatases and displaying in vitro efficacy against melanoma cells” (Oncotarget, 2015)
